Experimental data taken from patent US20190336496A1, “SELECTIVE BCL-2 INHIBITORS IN COMBINATION WITH AN ANTI-PD-1 OR AN ANTI-PD-L1 ANTIBODY FOR THE TREATMENT OF CANCERS” (AbbVie Inc., priority 2018, published 2019).

Columns and labels:
[1] = system: EMT6 tumors; assay: EMT6 mouse mammary carcinoma syngeneic model; assay type: in vivo; conditions: EMT6; venetoclax 50 mg/kg daily for 14 days
Protocol: All experiments were conducted in compliance with the National Institutes of Health Guide for Care and Use of Laboratory Animals guidelines in a facility accredited by the Association for the Assessment and Accreditation of Laboratory Animal Care (AAALAC). BALB/c, C57BL/6, CB6F1 (C57BL/6 bred with BALB/c) and SCID mice were obtained from Charles River (Wilmington, Mass.). SCID mice have severe combined immune deficiency (SCID) and are characterized by an absence of functional T- and B-cells.
EMT6, mouse mammary carcinoma and CT26, mouse colon carcinoma, cell lines were obtained from ATCC (Manassas, Va.). MC38, mouse colon carcinoma cell line was obtained from National Cancer Institute (NCI).
Compound (I),venetoclax, was formulated in 10% ethanol+30% PEG 400+60% Phosal® 50PG. Venetoclax was administered orally once a day for 14 days at 50 mg/kg/day.
1×10^5 CT26, EMT6 or MC38 cells were subcutaneously injected with Matrigel into the flanks of BALB/c, CB6F1 or C57BL/6 mice, respectively. Seven days later, mice were randomized to treatment groups of vehicle, venetoclax, anti-PD-1/PD-L1 or the combination of venetoclax and anti-PD-1/PD-L1. Tumor volume was determined via measurements of the length (L) and width (W) of the tumor with electronic calipers and the volume was calculated according to the following equation: V=L×W2/2 using Study Director Version 2.1.11 (Studylog Systems Inc., South San Francisco). Complete response (CR) was defined as reduction in tumor volume to ≤25 mm^3 over at least 3 successive measurements.

[2] = system: CMV-positive CD8 T cells; assay: CMV specific CD8 T cell response; assay type: cell-based, human; conditions: overnight (12-14 hours) incubation
From the text: The cytomegalovirus (CMV) specific assay was used to evaluate the effects of venetoclax on antigen-experienced CD8 T cells. This assay used CMV) peptide pp65 ([…], SEQ ID NO: 53) to stimulate CMV-positive CD8 T cells, and MART ([…]) peptide as a negative control. Human CMV-positive CD8 T cells and CMV peptide pp65 were purchased from Astarte Biologics and MART peptide as purchased from Genscript. 2×10^5 CMV-positive CD8 T cells were stimulated with 2×10^5 CMV pp65 peptide or MART peptide loaded T2 cells (2.5 μg/ml of peptide) with brefeldin-A in RPMI media supplemented with 10% fetal bovine serum (FBS). For measuring the IFNγ secretion in the supernatant, CMV+ CD8 T cells were activated with CMV pp65 peptide or MART peptide loaded T2 cells and incubated with venetoclax without brefeldin-A in RPMI media supplemented with 10% fetal bovine serum (FBS). […] Cells were analyzed using an LSRFortessa™ X-20 instrument (BD Biosciences). The secreted IFNγ in supernatant was measured by ELISA.
CMV+ CD8 T cells were activated by CMV pp65 peptide ([…]) loaded on T2 cells and the effect of venetoclax on the function of these cells was assessed by measuring intra-cellular and secreted IFNγ (flow cytometry and ELISA as described above). […]

[3] = system: mouse splenocytes; assay: In vitro sensitivity of mouse splenocytes; assay type: cell-based; conditions: BALB/c and C57BL/6 splenocytes, 24 hours
Protocol: Mouse splenocytes were plated at a density of 5×10^5 cells per well in a 48-well plate with 30 U/mL IL-2. Cells were cultured for 24 hours and then increasing concentrations of venetoclax were added for an additional 24 hours (DMSO was used as control). Cells were harvested, stained and subjected to flow cytometry analysis with an LSRFortessa™ X-20 instrument (BD Biosciences).
To further explore the mechanism for immune modulation in mice, splenocytes from BALB/c and C57BL/6 mice were treated in vitro with venetoclax for 24 hours. The two types of memory T-cells in mice are central memory (TCM; […]) and effector memory T-cells (TEM; […]). While naïve T-cells (CD62L^+CD44^−) were sensitive to venetoclax, effector memory T-cells were not and, importantly, their proportion increased relative to surviving T-cells with increased concentrations of venetoclax. Central memory T-cells were not affected by venetoclax under these experimental conditions (FIG. 9).

[4] = system: mouse lymphocytes; assay: In vivo sensitivity of lymphocytes (flow cytometry)
Protocol: FIG. 2: In vivo sensitivity of lymphocytes to Compound (I). […] Descriptions of each sub-section are as follows: (A) In vivo sensitivity of lymphocytes following one week of treatment with Compound (I). Naïve CB6F1 mice were treated daily with Compound (I) (50/mg/kg) for one week. Lymph nodes were collected, and immune cells were quantified by flow cytometry; (B) In vivo sensitivity of splenocytes following one week of treatment with Compound (I). Naïve C57BL/6 mice were treated daily with Compound (I) (50/mg/kg) for one week. Spleens were collected and immune cells were quantified by flow cytometry. Mouse splenocytes, including B-cells, CD8+ T-cells, and CD4+ T-cells, were sensitive to in vivo treatment with Compound (I), as described in Example 1; (C) In vivo sensitivity of T-cell subsets in splenocytes following one week of treatment with Compound (I). CD4+ naïve T-cells (TN) and CD8+ central memory T-cells in the spleen from C57BL/6 mice were slightly sensitive to in vivo Compound (I) treatment while the proportion of CD4+ and CD8+ effector memory T-cells (TEM) was increasing; and (D) In vivo sensitivity of T-cell subsets in the blood following one week of treatment with Compound (I). The proportion of CD4+ and CD8+ effector memory T cells (TEM) increased in the blood from C57BL/6 mice following in vivo Compound (I) treatment.
Cancer Immunol Res. 5; 29-41 (2017)). Any reduction in checkpoint inhibitor-mediated tumor growth inhibition or response rates caused by the addition of venetoclax would indicate potential antagonism. The panel was composed of syngeneic models of solid tumors: CT26, MC38 (both colorectal carcinoma) and EMT6 (breast cancer). […] Likewise, only modest anti-tumor activity could be observed in these models with venetoclax alone, dosed daily at 50 mg/kg for 14 days (FIG. 3, FIG. 6, FIGS. 12A, 12B, 12C, and 12D). […] Rather, it enhanced their efficacy in certain cases.

## CC1(C)CCC(CN2CCN(c3ccc(C(=O)NS(=O)(=O)c4ccc(NCC5CCOCC5)c([N+](=O)[O-])c4)c(Oc4cnc5[nH]ccc5c4)c3)CC2)=C(c2ccc(Cl)cc2)C1 [Compound (I), venetoclax]
[1]
  anti-tumor activity as single agent: modest activity
[2]
  number of CD8 T cells: reduced
[3]
  central memory T-cells: not affected
  sensitivity of naïve T-cells: sensitive
[3]; increased concentrations
  proportion of effector memory T-cells relative to surviving T-cells: increased
[4]; daily 50/mg/kg for one week, flow cytometry
  sensitivity of lymphocytes in lymph node, spleen and blood (B-cells, CD8+ T-cells, CD4+ T-cells): sensitive
[4]; mice treated daily at 50 mg/kg for one week
  murine T-cell populations in vivo: clear reductions
[4]; spleen and blood of C57BL/6 mice, one week of treatment
  proportion of memory cells, specifically effector memory cells: increase
